How the values were obtained:
Assay type in all cases: in vivo
[1] = tested on: boll weevil (Anthonomus grandis); assay: Action on boll weevil (Anthonomus grandis), eggs on insect diet in microtiter plates; conditions: 120 h, egg and larval mortality after 5 days, read-out: mortality in comparison with untreated controls
Method: Example B3: Action on Boll Weevil (Anthonomus grandis)
For evaluating control of boll weevil (Anthonomus grandis) the test unit consisted of 96-well-microtiter plates containing an insect diet and 5-10 A. grandis eggs.
The compounds were formulated using a solution containing 75% v/v water and 25% v/v DMSO. Different concentrations of formulated compounds were sprayed onto the insect diet at 5 μl, using a custom built micro atomizer, at two replications.
After application, microtiter plates were incubated at about 25±1° C. and about 75±5% relative humidity for 5 days. Egg and larval mortality was then visually assessed.

[2] = tested on: tobacco budworm (Heliothis virescens); assay: Action on tobacco budworm (Heliothis virescens), eggs on insect diet in microtiter plates; conditions: 120 h, egg and larval mortality after 5 days, read-out: mortality in comparison with untreated controls
Method: Example B5: Action on Tobacco Budworm (Heliothis virescens)
For evaluating control of tobacco budworm (Heliothis virescens) the test unit consisted of 96-well-microtiter plates containing an insect diet and 15-25 H. virescens eggs.
The compounds were formulated using a solution containing 75% v/v water and 25% v/v DMSO. Different concentrations of formulated compounds were sprayed onto the insect diet at 10 μl, using a custom built micro atomizer, at two replications.
After application, microtiter plates were incubated at about 28±1° C. and about 80±5% relative humidity for 5 days. Egg and larval mortality was then visually assessed.

[3] = tested on: Southern Armyworm (Spodoptera eridania), 2nd Instar Larvae; assay: Action on southern armyworm (Spodoptera eridania), 2nd instar larvae on sprayed lima bean plants; conditions: 96 h, 2nd instar larvae on lima bean plants, 4 days after treatment, read-out: mortality in comparison with untreated controls
Method: Example B7: Action on Southern Armyworm (Spodoptera eridania), 2nd Instar Larvae
The active compounds were formulated by a Tecan liquid handler in 100% cyclohexanone as a 10,000 ppm solution supplied in tubes. The 10,000 ppm solution was serially diluted in 100% cyclohexanone to make interim solutions. These served as stock solutions for which final dilutions were made by the Tecan in 50% acetone:50% water (v/v) into 10 or 20 ml glass vials. A nonionic surfactant (Kinetic®) was included in the solution at a volume of 0.01% (v/v). The vials were then inserted into an automated electrostatic sprayer equipped with an atomizing nozzle for application to plants/insects.
Lima bean plants (variety Sieva) were grown 2 plants to a pot and selected for treatment at the 1st true leaf stage. Test solutions were sprayed onto the foliage by an automated electrostatic plant sprayer equipped with an atomizing spray nozzle. The plants were dried in the sprayer fume hood and then removed from the sprayer. Each pot was placed into perforated plastic bags with a zip closure. About 10 to 11 armyworm larvae were placed into the bag and the bags zipped closed. Test plants were maintained in a growth room at about 25° C. and about 20-40% relative humidity for 4 days, avoiding direct exposure to fluorescent light (24 hour photoperiod) to prevent trapping of heat inside the bags. Mortality and reduced feeding were assessed 4 days after treatment, compared to untreated control plants.

[4] = tested on: Diamond Back Moth (Plutella xylostella); assay: Action on diamond back moth (Plutella xylostella), cabbage leaf dip; conditions: foliar, 3rd instar larvae on dipped cabbage leaves, mortality 72 hours after treatment, read-out: mortality in comparison with untreated controls
Method: Example B6: Action on Diamond Back Moth (Plutella xylostella)
The active compound is dissolved at the desired concentration in a mixture of 1:1 (vol:vol) distilled water:acetone. Surfactant (Kinetic® HV) is added at a rate of 0.01% (vol/vol). The test solution is prepared at the day of use.
Leaves of cabbage were dipped in test solution and air-dried. Treated leaves were placed in petri dishes lined with moist filter paper and inoculated with ten 3rd instar larvae. Mortality was recorded 72 hours after treatment. Feeding damages were also recorded using a scale of 0-100%.

[5] = tested on: Orchid thrips (Dichromothrips corbetti); assay: Action on orchid thrips (Dichromothrips corbetti), floral-immersion technique; conditions: adult thrips, mortality 72 hours after treatment, read-out: mortality in comparison with untreated controls
Method: Example B2: Action on Orchid thrips (Dichromothrips corbetti)
Dichromothrips corbetti adults used for bioassay were obtained from a colony maintained continuously under laboratory conditions. For testing purposes, the test compound is diluted in a 1:1 mixture of acetone:water (vol:vol), plus Kinetic® HV at a rate of 0.01% v/v.
Thrips potency of each compound was evaluated by using a floral-immersion technique. All petals of individual, intact orchid flowers were dipped into treatment solution and allowed to dry in Petri dishes. Treated petals were placed into individual re-sealable plastic along with about […]. All test arenas were held under continuous light and a temperature of about 28° C. for duration of the assay. After 3 days, the numbers of live thrips were counted on each petal. The percent mortality was recorded 72 hours after treatment.

[6] = tested on: yellow fever mosquito (Aedes aegypti); assay: whole plant or invertebrate; conditions: 48 h, larval mortality visually assessed after 2 days, read-out: mortality in comparison with untreated controls
Method: Example B1: Action on Yellow Fever Mosquito (Aedes aegypti)
For evaluating control of yellow fever mosquito (Aedes aegypti) the test unit consisted of 96-well-microtiter plates containing 200 μl of tap water per well and 5-15 freshly hatched A. aegypti larvae.
The active compounds were formulated using a solution containing 75% (v/v) water and 25% (v/v) DMSO. Different concentrations of formulated compounds or mixtures were sprayed onto the insect diet at 2.5 μl, using a custom built micro atomizer, at two replications.
After application, microtiter plates were incubated at 28+1° C., 80+5% RH for 2 days. Larval mortality was then visually assessed.

CC(C)c1ccccc1NC(=S)N/N=C/c1ccc2c(COc3ccc(OC(F)(F)F)cc3)nsc2c1 [Example C-22, 1-(2-isopropylphenyl)-3-[(E)-[3-[[4-(trifluoromethoxy)phenoxy]methyl]-1,2-benzothiazol-6-yl]methyleneamino]thiourea]
≥ 75%: mortality at 800 ppm [1] | mortality at 800 ppm [2] | mortality at 300 ppm [3] | mortality at 500 ppm [4]

Cc1cccc(C)c1N1C(=O)CS/C1=N\N=C\c1ccc2c(COc3ccc(OC(F)(F)F)cc3)nn(C)c2c1 [Example C-2, (2Z)-3-(2,6-dimethylphenyl)-2-[(E)-[1-methyl-3-[[4-(trifluoromethoxy)phenoxy]methyl]indazol-6-yl]methylenehydrazono]thiazolidin-4-one]
≥ 75%: mortality at 800 ppm [1] | mortality at 500 ppm [5] | mortality at 800 ppm [2] | mortality at 500 ppm [4] | mortality at 800 ppm [6]

CC(C)c1ccccc1N1C(=O)CS/C1=N\N=C\c1ccc2c(C(=O)Nc3ccc(OC(F)(F)F)cc3)nn(C)c2c1 [Example C-8, 6-[(E)-[(Z)-[3-(2-isopropylphenyl)-4-oxo-thiazolidin-2-ylidene]hydrazono]methyl]-1-methyl-N-[4-(trifluoromethoxy)phenyl]indazole-3-carboxamide]
≥ 75%: mortality at 800 ppm [1] | mortality at 800 ppm [2] | mortality at 300 ppm [3] | mortality at 500 ppm [4] | mortality at 800 ppm [6]

CC(C)c1ccccc1N1C(=O)CS/C1=N\N=C\c1ccc2c(COc3ccc(OC(F)(F)F)cc3)noc2c1 [Example C-25, (2Z)-3-(2-isopropylphenyl)-2-[(E)-[3-[[4-(trifluoromethoxy)phenoxy]methyl]-1,2-benzoxazol-6-yl]methylenehydrazono]thiazolidin-4-one]
≥ 75%: mortality at 800 ppm [1] | mortality at 800 ppm [2] | mortality at 500 ppm [4] | mortality at 800 ppm [6]

CC(C)c1ccccc1N1C(=O)CS/C1=N\N=C\c1ccc2c(COc3ccc(OC(F)(F)F)cc3)nsc2c1 [Example C-23, (2Z)-3-(2-isopropylphenyl)-2-[(E)-[3-[[4-(trifluoromethoxy)phenoxy]methyl]-1,2-benzothiazol-6-yl]methylenehydrazono]thiazolidin-4-one]
≥ 75%: mortality at 800 ppm [1] | mortality at 800 ppm [2] | mortality at 300 ppm [3] | mortality at 500 ppm [4]

CC(C)c1ccccc1N1C(=O)CS/C1=N\N=Cc1cc(F)c2c(C(=O)N(C)c3ccc(OC(F)(F)F)cc3)nn(C)c2c1 [Example C-19, 4-fluoro-6-[[(Z)-[3-(2-isopropylphenyl)-4-oxo-thiazolidin-2-ylidene]hydrazono]methyl]-N,1-dimethyl-N-[4-(trifluoromethoxy)phenyl]indazole-3-carboxamide]
≥ 75%: mortality at 800 ppm [1] | mortality at 500 ppm [5] | mortality at 800 ppm [2] | mortality at 300 ppm [3] | mortality at 500 ppm [4] | mortality at 800 ppm [6]

CC(C)c1ccccc1NC(=S)N/N=C/c1cc2c(cn1)c(COc1ccc(OC(F)(F)F)cc1)nn2C [Example C-15, 1-(2-isopropylphenyl)-3-[(E)-[1-methyl-3-[[4-(trifluoromethoxy)phenoxy]methyl]pyrazolo[4,3-c]pyridin-6 yl]methyleneamino]thiourea]
≥ 75%: mortality at 800 ppm [1] | mortality at 500 ppm [5] | mortality at 800 ppm [2] | mortality at 300 ppm [3] | mortality at 500 ppm [4] | mortality at 800 ppm [6]

CC(C)c1ccccc1NC(=S)N/N=C/c1ccc2c(C(=O)Nc3ccc(OC(F)(F)F)cc3)nn(C)c2c1 [Example C-7, 6-[(E)-[(2-isopropylphenyl)carbamothioylhydrazono]methyl]-1-methyl-N-[4-(trifluoromethoxy)phenyl]indazole-3-carboxamide]
≥ 75%: mortality at 800 ppm [1] | mortality at 800 ppm [2] | mortality at 300 ppm [3] | mortality at 500 ppm [4] | mortality at 800 ppm [6]

CO[C@@H]1[C@@H](OC)[C@H](C)O[C@@H](OC(=O)Nc2ccc3c(NC(=O)c4ccc(OC(F)(F)F)cc4)nn(C)c3c2)[C@@H]1OC [Example C-5, [(2S,3R,4R,5S,6S)-3,4,5-trimethoxy-6-methyl-tetrahydropyran-2-yl] N-[1-methyl-3-[[4-(trifluoromethoxy)benzoyl]amino]indazol-6-yl]carbamate]
≥ 75%: mortality at 800 ppm [1] | mortality at 800 ppm [6]

CC(C)c1ccccc1NC(=S)N/N=C/c1ccc2c(COc3ccc(OC(F)(F)F)cc3)noc2c1 [Example C-24, 1-(2-isopropylphenyl)-3-[(E)-[3-[[4-(trifluoromethoxy)phenoxy]methyl]-1,2-benzoxazol-6-yl]methyleneamino]thiourea]
≥ 75%: mortality at 800 ppm [1] | mortality at 800 ppm [2] | mortality at 500 ppm [4]

Cc1cccc(C)c1NC(=S)N/N=C/c1ccc2c(COc3ccc(OC(F)(F)F)cc3)nn(C)c2c1 [Example C-1, 1-(2,6-dimethylphenyl)-3-[(E)-[1-methyl-3-[[4-(trifluoromethoxy)phenoxy]methyl]indazol-6-yl]methyleneamino]thiourea]
≥ 75%: mortality at 800 ppm [1] | mortality at 500 ppm [5] | mortality at 800 ppm [2] | mortality at 300 ppm [3] | mortality at 500 ppm [4] | mortality at 800 ppm [6]

CC(C)c1ccccc1NC(=S)NN=Cc1cc(F)c2c(C(=O)Nc3ccc(OC(F)(F)F)cc3)nn(C)c2c1 [Example C-17, 4-fluoro-6-[[(2-isopropylphenyl)carbamothioylhydrazono]methyl]—1-methyl-N-[4-(trifluoromethoxy)phenyl]indazole-3-carboxamide]
≥ 75%: mortality at 800 ppm [1] | mortality at 800 ppm [2] | mortality at 300 ppm [3]

CC(C)c1ccccc1NC(=S)NN=Cc1cc(F)c2c(C(=O)N(C)c3ccc(OC(F)(F)F)cc3)nn(C)c2c1 [Example C-18, 4-fluoro-6-[[(2-isopropylphenyl)carbamothioylhydrazono]methyl]-N,1-dimethyl-N-[4-(trifluoromethoxy)phenyl]indazole-3-carboxamide]
≥ 75%: mortality at 800 ppm [1] | mortality at 800 ppm [2] | mortality at 300 ppm [3] | mortality at 500 ppm [4]

CC(C)c1ccccc1N1C(=O)CS/C1=N\N=C\c1ccc2c(COc3ccc(OC(F)(F)F)cc3)nn(C)c2c1 [Example C-4, (2Z)-3-(2-isopropylphenyl)-2-[(E)-[1-methyl-3-[[4-(trifluoromethoxy)phenoxy]methyl]indazol-6-yl]methylenehydrazono]thiazolidin-4-one]
≥ 75%: mortality at 800 ppm [1] | mortality at 500 ppm [5] | mortality at 500 ppm [4] | mortality at 800 ppm [6]

From patent publication US11160280B2, “Pesticial compounds” (BASF SE, priority 2017, dated 2021)
